Measurements as given in patent US20070259939A1, “USING NALTREXONE AS A MULTI-PURPOSE HEALTH SUPPLEMENT TO IMPROVE THE HUMAN CONDITION AND PREVENTING MULTIPLE DISEASES AND INFIRMITIES BY STIMULATING IMMUNE SYSTEM VITALITY AND ROBUSTNESS” (ACCELERATED TECHNOLOGIES, priority 2006, published 2007).

Tests used:
alcohol cravings = test: inhibition of alcohol cravings by low dose naltrexone; type: in vivo, human
Text: Naltrexone is already known to help cure addictive behaviors, such as alcoholism, opiate, narcotic and tobacco addiction. With respect to the treatment of alcohol addiction, naltrexone may be effective because it eliminates the neural positive reinforcement normally experienced in the brain by blocking the receptors that provide the stimulatory effect felt from alcohol. As a result of the lack of positive reinforcement, there is no internal incentive to drink alcohol. In a similar manner, in another embodiment of the invention, the daily administration of low dose naltrexone may greatly reduce or eliminate the tendency to engage in addictive behavior by preventing its onset. This may be accomplished by diminishing any potential internal rewards for using chemical substances in the first place. […] The diminished desire for alcohol resulting from a low dose of naltrexone may be effective for more than 24 hours, thus for example a dose administered at 7:00 pm one evening may continue to inhibit alcohol cravings throughout the following evening. A person in need of curbing an alcoholic appetite may take a pill, either before or along with the drink, and discover no desire for a second or third drink. To further eliminate an alcoholic appetite, a series of 1.5 mg naltrexone doses may be taken without alcohol, starting for example at about 6:00 pm.

cancer patients = conditions: low dose naltrexone; cited from earlier work
beta-endorphins = conditions: small doses each night; following days; patients who initially had deficient endorphin levels; cited from earlier work
[1] = low dose levels; cited from earlier work

In the case of `O=C1CC[C@@]2(O)[C@H]3Cc4ccc(O)c5c4[C@@]2(CCN3CC2CC2)[C@H]1O5` [naltrexone], the “effect on alcohol cravings” value (alcohol cravings; low dosage, around 4.5 mg) is listed as “greatly inhibit alcohol cravings”, the “duration of diminished desire for alcohol” value (alcohol cravings; low dose of naltrexone) is listed as “more than 24 hours” and the “cancer patients with a positive effect (for example stopping the spread of tumors)” value (cancer patients) is listed as ≤ 65%. The “cancer patients with remission” value (cancer patients) was 30%, the “increase in beta-endorphins circulating in the blood” value (beta-endorphins) was 200-300% and the side effects [1] was “not known to have any important side effects”.
